Article PMC10141580, “Cyclic Dichalcogenides Extend the Reach of Bioreductive Prodrugs to Harness Thiol/Disulfide Oxidoreductases: Applications to seco-Duocarmycins Targeting the Thioredoxin System” (ACS Central Science, 2023)
pIC50: −log10 of the molar value. Read-outs that look alike come from different tables or passages of the source.

Test system: panel of 140 standard cancer cell lines
Test: ProliFiler-140 cancer cell line screen (CellTiterGlo, 72 h)
Type: cell-based
Conditions: for IC50: read-out: IC50 [M] (ProliFiler-140); for pIC50: read-out: IC50
Experimental: Incubations were performed for 72 h before automated viability readout with CellTiterGlo (Figure 8).
End of Figure S11 (part 5 of 5): ProliFiler-140 cancer cell line screening for cytotoxicity of the prodrugs.
8-data-point dose response curves from CellTiter-Glo® viability readout.
ProliFiler-140 cell line panel part V

IC50 (A172 (Brain), listed as Dox): 9.4e-08 M
IC50 (A375 (Skin), listed as Dox): 4.8e-08 M
IC50 (A427 (Lung), listed as Dox): 6.56e-08 M
IC50 (A431 (Skin), listed as Dox): 1.7e-07 M
IC50 (A549 (Lung), listed as Dox): 3.11e-07 M
IC50 (A2058 (Skin), listed as Dox): 3.73e-08 M
IC50 (AsPC-1 (Pancreas), listed as Dox): 1.16e-06 M
IC50 (BT-20 (Breast), listed as Dox): 2.35e-07 M
IC50 (BxPC-3 (Pancreas), listed as Dox): 2.8e-07 M
IC50 (COR-L279 (Lung), listed as Dox): 7.88e-08 M
IC50 (COV434 (Ovary), listed as Dox): 6.97e-08 M
IC50 (COV434, COV434 (Ovary)): 7e-08 M
IC50 (Caki-1 (Kidney), listed as Dox): 3.4e-07 M
IC50 (Caki-2 (Kidney), listed as Dox): 1e-06 M
IC50 (Calu-6 (Lung), listed as Dox): 7.7e-07 M
IC50 (DU-145 (Prostate), listed as Dox): 1.52e-07 M
IC50 (DV90 (Lung), listed as Dox): 1.95e-08 M
IC50 (EFM-19 (Breast), listed as Dox): 4.73e-07 M
IC50 (EFM-192A (Breast), listed as Dox): 7.35e-07 M
IC50 (EFM-192A, EFM-192A (Breast)): 7.3e-07 M
IC50 (EFO-27 (Ovary), listed as Dox): 2.93e-07 M
IC50 (H4 (Brain), listed as Dox): 8.2e-08 M
IC50 (H4 (Brain)): 8.18e-08 M
IC50 (H1299 (Lung), listed as Dox): 2.2e-07 M
IC50 (H2228 (Lung), listed as Dox): 5.7e-08 M
IC50 (HCC202 (Breast), listed as Dox): 7.65e-07 M
IC50 (HCC202, HCC202 (Breast)): 7.6e-07 M
IC50 (HCC827 (Lung), listed as Dox): 3.48e-07 M
IC50 (HCC 1569 (Breast), listed as Dox): 7.01e-07 M
IC50 (HCT-15 (Colon), listed as Dox): 6.4e-07 M
IC50 (HEC-1-A (Endometrium), listed as Dox): 3.27e-07 M
IC50 (HEC-1-B (Endometrium), listed as Dox): 2.37e-06 M
IC50 (HL-60 (Blood), listed as Dox): 2.65e-08 M
IC50 (HT-29 (Colon), listed as Dox): 3.69e-07 M
IC50 (HeLa (Cervix), listed as Dox): 8e-08 M
IC50 (Hep3B2.1-7 (Liver), listed as Dox): 5.32e-07 M
IC50 (Hep3B2.1-7 (Liver)): 5.3e-07 M
IC50 (Homo sapiens, 786-0, 786-O (Kidney)): 1.15e-07 M
pIC50 (Homo sapiens, 786-0, 786-O): 6.96
IC50 (Homo sapiens, A 172, A172 (Brain)): 9.38e-08 M
IC50 (Homo sapiens, A498, A498 (Kidney)): 3.22e-07 M
pIC50 (Homo sapiens, A498, A498): 6.49
pIC50 (Homo sapiens, A549, A549): 6.51
IC50 (Homo sapiens, A2058, A2058 (Skin)): 3.7e-08 M
IC50 (Homo sapiens, A2780, A2780 (Ovary)): 1.8e-08 M
IC50 (Homo sapiens, A-375, A375 (Skin)): 4.76e-08 M
IC50 (Homo sapiens, A-427, A427 (Lung)): 6.6e-08 M
IC50 (Homo sapiens, A-431, A431 (Skin)): 1.74e-07 M
IC50 (Homo sapiens, ASPC1, AsPC-1 (Pancreas)): 1.2e-06 M
IC50 (Homo sapiens, BT-20, BT-20 (Breast)): 2.3e-07 M
IC50 (Homo sapiens, BXPC-3, BxPC-3 (Pancreas)): 2.78e-07 M
IC50 (Homo sapiens, CAKI-1, Caki-1 (Kidney)): 3.39e-07 M
IC50 (Homo sapiens, CAKI-2, Caki-2 (Kidney)): 1.03e-06 M
IC50 (Homo sapiens, COR-L279, COR-L279 (Lung)): 7.9e-08 M
IC50 (Homo sapiens, Calu-6, Calu-6 (Lung)): 7.69e-07 M
IC50 (Homo sapiens, DLD-1, DLD-1 (Colon)): 1.37e-07 M
IC50 (Homo sapiens, DU-145, DU-145 (Prostate)): 1.5e-07 M
pIC50 (Homo sapiens, DU-145, DU-145): 6.82
IC50 (Homo sapiens, DV-90, DV90 (Lung)): 1.9e-08 M
IC50 (Homo sapiens, Detroit 562, Detroit562 (Head/Neck)): 1.54e-07 M
IC50 (Homo sapiens, EFM-19, EFM-19 (Breast)): 4.7e-07 M
IC50 (Homo sapiens, EFO-27, EFO-27 (Ovary)): 2.9e-07 M
IC50 (Homo sapiens, EPLC-272H, EPLC-272H (Lung)): 1.97e-07 M
IC50 (Homo sapiens, HCC38, HCC38 (Breast)): 5.21e-08 M
IC50 (Homo sapiens, HCC827, HCC827 (Lung)): 3.5e-07 M
IC50 (Homo sapiens, HCC1569, HCC 1569 (Breast)): 7e-07 M
IC50 (Homo sapiens, HCT-15, HCT-15 (Colon)): 6.43e-07 M
IC50 (Homo sapiens, HCT-116, HCT116 (Colon)): 1.07e-07 M
pIC50 (Homo sapiens, HCT-116, HCT116): 6.96
IC50 (Homo sapiens, HEC-1-A, HEC-1-A (Endometrium)): 3.3e-07 M
IC50 (Homo sapiens, HEC-1B, HEC-1-B (Endometrium)): 2.4e-06 M
IC50 (Homo sapiens, HL-60, HL-60 (Blood)): 2.6e-08 M
pIC50 (Homo sapiens, HL-60, HL-60): 7.59
IC50 (Homo sapiens, HT-29, HT-29 (Colon)): 3.7e-07 M
pIC50 (Homo sapiens, HT-29, HT-29): 6.43
IC50 (Homo sapiens, HT-1080, HT-1080 (Fibrosarcoma)): 7.6e-08 M
IC50 (Homo sapiens, HeLa, HeLa (Cervix)): 8.04e-08 M
IC50 (Homo sapiens, Hs746T, Hs 746T (Stomach)): 4e-07 M
IC50 (Homo sapiens, HuTu80, Hutu 80 (Duodenum)): 1.87e-08 M
IC50 (Homo sapiens, Huh-7, HuH7 (Liver)): 2.1e-07 M
IC50 (Homo sapiens, Ishikawa, Ishikawa (Endometrium)): 7.7e-08 M
IC50 (Homo sapiens, JIMT-1, JIMT-1 (Breast)): 1.3e-06 M
IC50 (Homo sapiens, JVM-3, JVM-3 (Blood)): 3e-08 M
IC50 (Homo sapiens, Jurkat, Jurkat (Blood)): 4.01e-08 M
IC50 (Homo sapiens, K562, K562 (Blood)): 4.4e-07 M
IC50 (Homo sapiens, KARPAS-299, KARPAS 299 (Blood)): 7.32e-08 M
IC50 (Homo sapiens, KATO III, Kato III (Stomach)): 9e-07 M
IC50 (Homo sapiens, KG-1a, KG-1 a (Blood)): 4.91e-07 M
IC50 (Homo sapiens, KMS-12-BM, KMS-12-BM (Blood)): 1.65e-07 M
IC50 (Homo sapiens, LN-229, LN229 (Brain)): 2.16e-07 M
IC50 (Homo sapiens, LNCaP, LnCap (Prostate)): 1.9e-07 M
IC50 (Homo sapiens, LoVo, LOVO (Colon)): 1.11e-07 M
IC50 (Homo sapiens, MDA-MB-435, MDA MB 435 (Skin)): 4.8e-07 M
IC50 (Homo sapiens, MDA-MB-468, MDA-MB-468 (Breast)): 4.7e-08 M
IC50 (Homo sapiens, MEC1, MEC-1 (Blood)): 7.3e-08 M
IC50 (Homo sapiens, MIA PaCa-2, Mia PaCA 2 (Pancreas)): 7.37e-08 M
IC50 (Homo sapiens, MKN-1, MKN-1 (Stomach)): 5.2e-08 M
IC50 (Homo sapiens, MKN-45, MKN-45 (Stomach)): 3.16e-07 M
IC50 (Homo sapiens, MOLM-13, MOLM-13 (Blood)): 2.1e-08 M
IC50 (Homo sapiens, MOLT-4, MOLT-4 (Blood)): 2.6e-08 M
pIC50 (Homo sapiens, MOLT-4, MOLT-4): 7.59
IC50 (Homo sapiens, MV4-11, MV4-11 (Blood)): 4.3e-09 M
IC50 (Homo sapiens, NALM-6, NALM-6 (Blood)): 2.3e-08 M
IC50 (Homo sapiens, NCI-H82, NCI-H82 (Lung)): 6.2e-07 M
IC50 (Homo sapiens, NCI-H292, NCI-H292 (Lung)): 7.2e-08 M
IC50 (Homo sapiens, NCI-H441, NCI-H441 (Lung)): 3.49e-07 M
IC50 (Homo sapiens, NCI-H460, H460 (Lung)): 2.6e-08 M
IC50 (Homo sapiens, NCI-H838, NCI-H838 (Lung)): 1.5e-07 M
IC50 (Homo sapiens, NCI-H1048, NCI-H1048 (Lung)): 3.2e-08 M
IC50 (Homo sapiens, NCI-H1299, H1299 (Lung)): 2.23e-07 M
IC50 (Homo sapiens, NCI-H1437, NCI-H1437 (Lung)): 1.39e-07 M
IC50 (Homo sapiens, NCI-H1563, NCI-H1563 (Lung)): 5.4e-07 M
IC50 (Homo sapiens, NCI-H1573, NCI-H1573 (Lung)): 3e-06 M
IC50 (Homo sapiens, NCI-H1581, NCI-H1581 (Lung)): 1.47e-07 M
IC50 (Homo sapiens, NCI-H1703, NCI-H1703 (Lung)): 9.2e-08 M
IC50 (Homo sapiens, NCI-H1838, NCI-H1838 (Lung)): 2.5e-07 M
Structure (SMILES): COc1cccc2c1C(=O)c1c(O)c3c(c(O)c1C2=O)C[C@@](O)(C(=O)CO)C[C@@H]3O[C@H]1C[C@H](N)[C@H](O)[C@H](C)O1 [doxorubicin, reference compound]
